{
  "source": "patent US20070149456A1",
  "about": "“Epithelial sodium channel inhibiting agents and uses therefor” (University of Pittsburgh, priority 2005, published 2007)",
  "biological_target": "T1, wild-type ENaC co-expressed with prostasin (Mus musculus, UniProt Q61180+Q9WU38+Q9WU39)",
  "T1 construct": "expressed in transfected cells; host or cells: Xenopus laevis oocytes (cRNA co-injection)",
  "T1 sequence (Q61180 1-205)": "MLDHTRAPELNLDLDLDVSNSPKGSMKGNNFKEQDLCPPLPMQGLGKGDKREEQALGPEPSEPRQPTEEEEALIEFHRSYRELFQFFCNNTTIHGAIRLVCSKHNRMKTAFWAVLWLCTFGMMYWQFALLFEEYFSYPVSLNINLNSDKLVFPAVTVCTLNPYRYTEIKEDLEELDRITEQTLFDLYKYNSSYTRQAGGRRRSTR",
  "T1 sequence (Q61180 232-699)": "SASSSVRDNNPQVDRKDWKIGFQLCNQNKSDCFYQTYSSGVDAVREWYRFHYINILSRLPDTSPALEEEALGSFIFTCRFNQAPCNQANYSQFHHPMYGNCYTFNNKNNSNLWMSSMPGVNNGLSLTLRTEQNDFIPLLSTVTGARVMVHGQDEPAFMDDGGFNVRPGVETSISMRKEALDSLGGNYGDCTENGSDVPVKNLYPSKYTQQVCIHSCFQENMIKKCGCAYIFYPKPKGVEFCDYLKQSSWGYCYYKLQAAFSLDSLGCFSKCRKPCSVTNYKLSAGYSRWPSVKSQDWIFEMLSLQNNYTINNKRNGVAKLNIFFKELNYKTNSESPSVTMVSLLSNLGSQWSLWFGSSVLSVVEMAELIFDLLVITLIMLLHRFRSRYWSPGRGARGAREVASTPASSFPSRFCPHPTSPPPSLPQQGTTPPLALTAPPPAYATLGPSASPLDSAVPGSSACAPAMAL",
  "T1 sequence (Q9WU38 whole entry)": "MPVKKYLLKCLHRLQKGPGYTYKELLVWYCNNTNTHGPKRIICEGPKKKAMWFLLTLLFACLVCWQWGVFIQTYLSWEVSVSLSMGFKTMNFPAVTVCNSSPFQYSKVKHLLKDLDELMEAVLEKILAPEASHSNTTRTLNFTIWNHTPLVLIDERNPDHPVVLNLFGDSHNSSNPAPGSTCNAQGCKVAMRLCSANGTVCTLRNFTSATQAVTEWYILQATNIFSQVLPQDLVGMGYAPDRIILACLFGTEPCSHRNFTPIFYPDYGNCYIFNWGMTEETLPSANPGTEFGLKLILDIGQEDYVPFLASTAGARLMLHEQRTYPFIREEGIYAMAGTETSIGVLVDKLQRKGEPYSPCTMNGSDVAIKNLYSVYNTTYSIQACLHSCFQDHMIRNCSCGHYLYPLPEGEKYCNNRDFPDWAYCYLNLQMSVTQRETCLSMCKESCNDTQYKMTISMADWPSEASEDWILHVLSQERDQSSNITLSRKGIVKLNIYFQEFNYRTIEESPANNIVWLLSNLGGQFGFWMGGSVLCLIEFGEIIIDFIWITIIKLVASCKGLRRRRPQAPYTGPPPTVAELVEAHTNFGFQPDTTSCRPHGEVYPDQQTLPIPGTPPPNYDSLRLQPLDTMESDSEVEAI",
  "T1 sequence (Q9WU39 1-143)": "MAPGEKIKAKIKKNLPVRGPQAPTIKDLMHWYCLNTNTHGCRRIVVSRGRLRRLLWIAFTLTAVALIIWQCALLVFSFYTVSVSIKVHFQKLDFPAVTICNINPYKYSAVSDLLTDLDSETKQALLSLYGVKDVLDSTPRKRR",
  "T1 sequence (Q9WU39 187-655)": "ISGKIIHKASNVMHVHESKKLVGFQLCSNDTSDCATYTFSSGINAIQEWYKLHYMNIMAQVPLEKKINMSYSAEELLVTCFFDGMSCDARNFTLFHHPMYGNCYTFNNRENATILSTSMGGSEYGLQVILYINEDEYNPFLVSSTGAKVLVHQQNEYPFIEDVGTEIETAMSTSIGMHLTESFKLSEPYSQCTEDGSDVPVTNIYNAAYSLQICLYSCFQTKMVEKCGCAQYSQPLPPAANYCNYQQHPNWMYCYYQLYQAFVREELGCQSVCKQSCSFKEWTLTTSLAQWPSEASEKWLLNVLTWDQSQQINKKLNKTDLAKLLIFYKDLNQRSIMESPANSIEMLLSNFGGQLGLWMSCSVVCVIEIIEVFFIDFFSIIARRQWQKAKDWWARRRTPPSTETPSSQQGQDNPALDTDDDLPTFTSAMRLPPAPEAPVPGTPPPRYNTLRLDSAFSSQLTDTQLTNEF",
  "assay": "Two-electrode voltage clamp in oocytes co-expressing ENaC and prostasin",
  "type": "cell-based",
  "conditions": "α-26 1 μM and 10 μM, aprotinin 1 μM present",
  "source_text": "Oocyte Expression—cRNAs for α, β, γ mouse ENaC (wild-type and mutant) subunits and mouse prostasin were synthesized with T3 or T7 m-Message mMachineTM (Ambion, Austin, Tex.). Subunits carrying furin cleavage consensus site mutations and the corresponding wild-type subunits have amino-terminal HA and carboxyl-terminal V5 tags (Hughey, R. P., Bruns, J. B., Kinlough, C. L., Harkleroad, K. L., Tong, Q., Carattino, M. D., Johnson, J. P., Stockand, J. D., and Kleyman, T. R. (2004) J. Biol. Chem. 279, 18111-18114 18). Stage V-VI Xenopus laevis oocytes were pretreated with 1.5 mg/ml of type IV collagenase and injected with 0.5-2 ng of cRNA/subunit. Injected oocytes were maintained as previously reported (Carattino, M. D., Hill, W. G., and Kleyman, T. R. (2003), Arachidonic Acid Regulates Surface Expression of Epithelial Sodium Channels, J Biol. Chem. 278, 36202-36213 29).\nTwo-electrode Voltage Clamp—Two-electrode voltage clamp (TEV) was performed as previously described (Carattino, M. D., Hill, W. G., and Kleyman, T. R. (2003) J Biol. Chem. 278, 36202-36213 29). The extracellular solution (TEV solution) was (in mM): 110 NaCl, 2 KCl, 1.54 CaCl2, 10 HEPES, pH 7.4, or otherwise as indicated. […] ENaC-mediated whole cell Na^+ currents, at −60 mV,were defined as the amiloride-sensitive component of the current. […]",
  "data": [
    {"substance": "Ac-DLRGALPHPLQRLRTPPPPNPARSAR-NH2 [α-26]", "values": [
      {"measurement": "effect of prostasin co-expression on α-26-dependent inhibition of ENaC", "value": "significantly reduced the efficacy"}
    ]}
  ]
}
